Test results published in patent publication EP0904260B1, “INHIBITION OF MATRIX METALLOPROTEASES BY 2-(OMEGA-AROYLALKYL)-4-BIARYL-OXOBUTYRIC ACIDS” (Bayer Corporation, priority 1996, dated 1997).

Assays:
MMP-3 = biological target: T1, MMP-3 (Homo sapiens, UniProt P08254); format: biochemical; settings: 6 µM P218 substrate, approximately 0.5 to 0.8 nM MMP, 25 min. at 37°C, pH 6.5
T1 construct: made in house; host or cells: CHO cells
Source text: (§1) The P218 quenched fluorescence assay (Microfluorometric Profiling Assay) is a modification of that originally described by Knight, et al., FEBS Lett. 296, 263, 1992 for a related substance and a variety of matrix metalloproteinases (MMPs) in cuvettes. The assay was run with each invention compound and the three MMPs. MMP-3, MMP-9 and MMP-2, analyzed in parallel. adapted as follows for a 96-well microtiter plate and a Hamilton AT® workstation.
(§2) P218 Fluorogenic Substrate: P218 is a synthetic substrate containing a 4-acetyl-7-methoxycoumarin ( MCA) group in the N-terminal position and a 3-[2,4-dinitrophenyl]-L-2,3-diaminopropionyl (DPA) group internally. This is a modification of a peptide reported by Knight (1992) that was used as a substrate for matrix metalloptoteinases. Once the P218 peptide is cleaved (putative clip site at the Ala-Leu bond), the fluorescence of the MCA group can be detected on a fluorometer with excitation at 328 nm and emission at 393 nm. P218 is currently being produced by BACHEM Bioscience, Inc.exclusively for the Bayer Corporation. P218 has the structure: [formula]
Recombinant Human CHO Pro-MMP-3: Human CHO pro-stromelysin-257 (pro-MMP-3) was expressed and purified as described by Housley, et al., J. Biol. Chem. 268, 4481, 1993.
Activation of Pro-MMP-3: Pro-MMP-3 at 1.72 µM (100 µg/mL) in 5 mM Tris at pH 7.5, 5 mM CaCl2, 25 mM NaCl, and 0.005% Brij-35 (MMP-3 activation buffer) was activated by incubation with TPCK (N-tosyl-(L)-phenylalanine chioromethyl ketone) trypsin (1:100 w/w to pro-MMP-3) at 25 °C for 30 min. The reaction was stopped by addition of soybean trypsin inhibitor (SBTI; 5:1 w/w to trypsin concentration). This activation protocol results in the formation of 45 kDa active MMP-3, which still contains the C-tenninal portion of the enzyme.
(§3) Hamiltion Microlab AT Plus: The MMP-Profiling Assay was performed robotically on a Hamilton MicroLab AT Plus®. The Hamilton was programmed to: (1) serially dilute up to 11 potential inhibitors automatically from a 2.5 mM stock in 100% DMSO; (2) distribute substrate followed by inhibitor into a 96 well Cytofluor plate; and (3) add a single enzyme to the plate with mixing to start the reaction. Subsequent plates for each additional enzyme were prepared automatically by beginning the program at the substrate addition point, remixing the diluted inhibitors and beginning the reaction by addition of enzyme. In this way, all MMP assays were done using the same inhibitor dilutions.
(§4) Millipore Cytofluor II. Following incubation, the plate was read on a Cytofluor II fluoromeiric plate reader with excitation at 340 nm and emission at 395 nm with the gain set at 80.
(§5) Microfluorometric Reaction Buffer (MRB): Dilution of test compounds, enzymes, and P218 substrate for the microfluorometric assay were made in microfluorometric reaction buffer consisting of 50 mM 2-(N-morpholino)ethanesulfonic acid (MES) at pH 6.5 with 10 mM CaCl2, 150 mM NaCl. 0.005% Brij-35 and 1% DMSO.
(§6) MMP Microfluorometric Profiling Assay. The assay was done with a final substrate concentration of 6 µM P218 and approximately 0.5 to 0.8 nM MMP with variable drug concentrations. The Hamilton was programmed to serially dilute up to 11 compounds from a 2.5 mM stock (100% DMSO) to 10x the final compounds concentrations in the assay. Initially, the instrument delivered various amounts of microfluorometric reaction buffer (MRB) to a 96 tube rack of 1 mL Marsh dilution tubes. The instrument then picked up 20 µL of inhibitor (2.5 mM) from the sample rack and mixes it with a buffer in row A of the Marsh rack, resulting in a 50 µM drug concentration. The inhibitors were then serially diluted to 10, 5, 1, .2, 0.05 and 0.01 µM. […] The instrument re-mixed and loads 14.5 µL of diluted compound from rows A to G in the Marsh rack to corresponding rows in the microtiter plate. (Row H represents the "background" row and 39.5 µL of MRB was delivered in placed of drug or enzyme). […]

MMP-9 = biological target: T2, MMP-9 (Homo sapiens, UniProt P14780); format: biochemical; settings: 6 µM P218 substrate, approximately 0.5 to 0.8 nM MMP, 25 min. at 37°C, pH 6.5
T2 construct: made in house
T2 sequence (P14780 107-707 limits assumed): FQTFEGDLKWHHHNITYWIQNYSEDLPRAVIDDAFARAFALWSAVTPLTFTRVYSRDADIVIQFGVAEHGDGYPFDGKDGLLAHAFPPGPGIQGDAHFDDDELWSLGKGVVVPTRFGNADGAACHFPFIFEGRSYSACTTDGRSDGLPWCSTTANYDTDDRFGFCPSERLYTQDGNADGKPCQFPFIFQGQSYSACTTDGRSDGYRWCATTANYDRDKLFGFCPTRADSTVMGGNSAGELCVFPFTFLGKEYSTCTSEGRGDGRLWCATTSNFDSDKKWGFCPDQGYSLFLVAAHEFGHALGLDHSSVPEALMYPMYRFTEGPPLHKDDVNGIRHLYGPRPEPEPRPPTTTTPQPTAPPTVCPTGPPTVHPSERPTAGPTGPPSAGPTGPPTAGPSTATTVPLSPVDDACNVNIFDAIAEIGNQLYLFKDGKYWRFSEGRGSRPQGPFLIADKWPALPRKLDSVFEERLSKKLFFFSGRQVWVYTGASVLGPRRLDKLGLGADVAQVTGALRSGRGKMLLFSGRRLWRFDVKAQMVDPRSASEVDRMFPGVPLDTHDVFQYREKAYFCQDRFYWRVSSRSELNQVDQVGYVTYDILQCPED
Source text: as §1, §2
Recombinant Human Pro-MMP-9: Human pro-gelatinase B (pro-MMP-9) derived from U937 cDNA as described by Wilhelm, et al. J. Biol. Chem. 264, 17213, 1989 was expressed as the full-length form using a baculovirus protein expression system. The pro-enzyme was purified using methods previously described by Hibbs, et al. J. Biol. Chem. 260, 2493, 1984.
Activation of Pro-MMP-9: […] 20 µg/mL in 50 mM Tris at pH 7.4, 10mM […], 150 mM NaCl, and 0.005% Brij-35 (MMP-9 activation buffer) was activated by incubation with 0 5 mM p-aminophenylmercuric acetate (APMA) for 3.5 h at 37 °C. The enzyme was dialyzed against the same buffer to remove the APMA.
as §3, §4, §5, §6

MMP-2 = biological target: T3, MMP-2 (Homo sapiens, UniProt P08253); test: biochemical
T3 sequence (P08253 110-660): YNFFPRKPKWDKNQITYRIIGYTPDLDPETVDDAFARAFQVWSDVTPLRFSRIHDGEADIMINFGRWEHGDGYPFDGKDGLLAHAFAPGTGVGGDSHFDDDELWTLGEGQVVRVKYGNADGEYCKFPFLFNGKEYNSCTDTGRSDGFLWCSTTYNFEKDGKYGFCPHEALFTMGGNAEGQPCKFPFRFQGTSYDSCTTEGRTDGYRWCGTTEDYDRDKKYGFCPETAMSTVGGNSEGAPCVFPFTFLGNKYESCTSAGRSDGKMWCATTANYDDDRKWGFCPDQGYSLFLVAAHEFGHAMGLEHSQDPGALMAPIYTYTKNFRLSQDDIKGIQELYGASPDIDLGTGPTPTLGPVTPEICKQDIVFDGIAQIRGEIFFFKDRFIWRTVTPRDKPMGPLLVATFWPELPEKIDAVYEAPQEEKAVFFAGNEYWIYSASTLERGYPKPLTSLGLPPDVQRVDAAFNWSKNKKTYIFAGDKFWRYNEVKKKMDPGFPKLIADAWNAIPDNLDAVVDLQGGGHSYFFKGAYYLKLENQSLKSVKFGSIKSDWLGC

T1 sequence (P08254 100-477): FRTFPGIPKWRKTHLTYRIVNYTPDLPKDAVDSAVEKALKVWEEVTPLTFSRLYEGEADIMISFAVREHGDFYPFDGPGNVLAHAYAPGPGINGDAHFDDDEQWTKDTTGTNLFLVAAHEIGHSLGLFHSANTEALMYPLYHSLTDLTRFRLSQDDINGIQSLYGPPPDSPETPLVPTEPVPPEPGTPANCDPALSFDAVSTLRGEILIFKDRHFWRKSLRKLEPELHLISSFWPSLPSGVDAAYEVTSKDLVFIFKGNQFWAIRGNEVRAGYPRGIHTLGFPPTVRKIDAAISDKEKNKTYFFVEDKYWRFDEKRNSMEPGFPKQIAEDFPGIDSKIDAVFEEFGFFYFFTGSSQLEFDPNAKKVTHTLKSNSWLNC

What does the source list for `COc1ccc(C(=O)CCCC(CC(=O)c2ccc(-c3ccc(Cl)cc3)cc2)C(=O)O)cc1` (stereo not drawn) [Compound X, 4'-chloro-α-[4-(4-methoxyphenyl)-4-oxobutyl]-γ-oxo-[1,1'-biphenyl]-4-butanoic acid]?
IC50 (MMP-3): 0.122 µM; IC50 (MMP-9): 0.145 µM; IC50 (MMP-2): 0.0251 µM

For `CC(C)c1ccc(C(=O)CCCC(CC(=O)c2ccc(-c3ccc(Cl)cc3)cc2)C(=O)O)cc1` (stereo not drawn) [Compound XV, 4'-chloro-α-[4-[4-(1-methylethyl)phenyl]-4-oxobutyl]-γ-oxo-[1,1'-biphenyl]-4-butanoic acid], which IC50 (MMP-3) is on record?
The IC50 was 0.13 µM.

And the IC50 (MMP-9)?
The IC50 was 0.133 µM.

What about the IC50 (MMP-2) of the same compound?
The IC50 was 0.0357 µM.

`COc1ccccc1C(=O)CCCC(CC(=O)c1ccc(-c2ccc(Cl)cc2)cc1)C(=O)O` (stereo not drawn) [Compound XVI, 4'-chloro-α-[4-(2-methoxyphenyl)-4-oxobutyl]-γ-oxo-[1,1'-biphenyl]-4-butanoic acid] was tested. Which IC50 (MMP-3) did it give?
The IC50 was 0.0482 µM.

What about the IC50 (MMP-9) of the same compound?
Its IC50 is 0.152 µM.

What about the IC50 (MMP-2) of the same compound?
Its IC50 is 0.0262 µM.

With `O=C(CCCC(CC(=O)c1ccc(-c2ccc(Cl)cc2)cc1)C(=O)O)c1ccccc1` (stereo not drawn) [I, 4'-chloro-y-oxo-α-(4-oxo-4-phenylbutyl)-[1,1'-biphenyl]-4-butanoic acid] as the compound, how does the IC50 (MMP-3) read?
Its IC50 is 0.065 µM.

What about the IC50 (MMP-9) of the same compound?
Its IC50 is 0.0657 µM.

And the IC50 (MMP-2)?
The IC50 was 0.00997 µM.

What does the source list for `O=C(CCC(CC(=O)c1ccc(-c2ccc(Cl)cc2)cc1)C(=O)O)c1ccccc1` (stereo not drawn) [II, 4'-chloro-y-oxo-α-(3-oxo-3-phenylpropyl)-[1,1'-biphenyl]-4-butanoic acid]?
IC50 (MMP-3): 0.096 µM; IC50 (MMP-9): 0.127 µM; IC50 (MMP-2): 0.0096 µM

For `O=C(CCCCC(CC(=O)c1ccc(-c2ccc(Cl)cc2)cc1)C(=O)O)c1ccccc1` (stereo not drawn) [III, 4'-chloro-γ-oxo-α-(5-oxo-5-phenylpentyl)-[1,1'-biphenyl]-4-butanoic acid], which IC50 (MMP-3) is on record?
The IC50 was 0.0611 µM.

What about the IC50 (MMP-9) of the same compound?
The IC50 was 0.0524 µM.

And the IC50 (MMP-2)?
Its IC50 is 0.00752 µM.

Which results are given for `O=C(CCCCCC(CC(=O)c1ccc(-c2ccc(Cl)cc2)cc1)C(=O)O)c1ccccc1` (stereo not drawn) [IV, 4'-chloro-γ-oxo-α-(6-oxo-6-phenylhexyl)-[1,1'-biphenyl]-4-butanoic acid]?
IC50 (MMP-3): 0.109 µM; IC50 (MMP-9): 0.175 µM; IC50 (MMP-2): 0.0341 µM

With `O=C(CCCC(CC(=O)c1ccc(-c2ccc(Cl)cc2)cc1)C(=O)O)c1ccc(Br)cc1` (stereo not drawn) [IX] as the compound, how does the IC50 (MMP-3) read?
Its IC50 is 0.125 µM.

And the IC50 (MMP-9)?
The IC50 was 0.131 µM.

What about the IC50 (MMP-2) of the same compound?
The IC50 was 0.0283 µM.

With `Cc1ccc(C(=O)CCCC(CC(=O)c2ccc(-c3ccc(Cl)cc3)cc2)C(=O)O)cc1` (stereo not drawn) [VIII, 4'-chloro-α-[4-(4-methylphenyl)-4-oxobutyl]-γ-oxo-[1,1'-biphenyl]-4-butanoic acid] as the compound, how does the IC50 (MMP-3) read?
Its IC50 is 0.0691 µM.

And the IC50 (MMP-9)?
Its IC50 is 0.108 µM.

And the IC50 (MMP-2)?
The IC50 was 0.019 µM.

`O=C(CCCC(CC(=O)c1ccc(-c2ccc(Cl)cc2)cc1)C(=O)O)c1ccc(Oc2ccccc2)cc1` (stereo not drawn) [VII] was tested. Which IC50 (MMP-3) did it give?
Its IC50 is 0.367 µM.

And the IC50 (MMP-9)?
The IC50 was 0.0657 µM.

And the IC50 (MMP-2)?
Its IC50 is 0.131 µM.

For `Cc1cc(C)c(C(=O)CCCC(CC(=O)c2ccc(-c3ccc(Cl)cc3)cc2)C(=O)O)c(C)c1` (stereo not drawn) [VI], which IC50 (MMP-3) is on record?
The IC50 was 0.0396 µM.

And the IC50 (MMP-9)?
The IC50 was 1.31 µM.

What about the IC50 (MMP-2) of the same compound?
Its IC50 is 0.0308 µM.

How did the IC50 (MMP-3) turn out when `COc1cc(OC)c(C(=O)CCCC(CC(=O)c2ccc(-c3ccc(Cl)cc3)cc2)C(=O)O)c(OC)c1` (stereo not drawn) [V] was run?
The IC50 was 0.0717 µM.

What about the IC50 (MMP-9) of the same compound?
Its IC50 is 0.132 µM.

What about the IC50 (MMP-2) of the same compound?
Its IC50 is 0.00813 µM.

How did the IC50 (MMP-3) turn out when `COc1ccc(C(=O)CCCC(CC(=O)c2ccc(-c3ccc(Cl)cc3)cc2)C(=O)O)c(OC)c1` (stereo not drawn) [XII, 4'-chloro-α-[4-(2,4-dimethoxyphenyl)-4-oxobutyl]-γ-oxo-[1,1'-biphenyl]-4-butanoic acid] was run?
Its IC50 is 0.115 µM.

What about the IC50 (MMP-9) of the same compound?
The IC50 was 0.225 µM.

What about the IC50 (MMP-2) of the same compound?
Its IC50 is 0.0251 µM.

How did the IC50 (MMP-3) turn out when `CC(C)(C)c1ccc(C(=O)CCCC(CC(=O)c2ccc(-c3ccc(Cl)cc3)cc2)C(=O)O)cc1` (stereo not drawn) [XIII] was run?
Its IC50 is 0.222 µM.

What about the IC50 (MMP-9) of the same compound?
The IC50 was 0.167 µM.

And the IC50 (MMP-2)?
Its IC50 is 0.0716 µM.

`CCc1ccc(C(=O)CCCC(CC(=O)c2ccc(-c3ccc(Cl)cc3)cc2)C(=O)O)cc1` (stereo not drawn) [XIV, 4'-chloro-α-[4-(4-ethylphenyl)-4-oxobutyl]-γ-oxo-[1,1'-biphenyl]-4-butanoic acid] was tested. Which IC50 (MMP-3) did it give?
Its IC50 is 0.089 µM.

And the IC50 (MMP-9)?
Its IC50 is 0.126 µM.

And the IC50 (MMP-2)?
The IC50 was 0.0294 µM.

How did the IC50 (MMP-3) turn out when `Cc1ccc(C(=O)CCCC(CC(=O)c2ccc(-c3ccc(Cl)cc3)cc2)C(=O)O)cc1C` (stereo not drawn) [XI] was run?
Its IC50 is 0.104 µM.

What about the IC50 (MMP-9) of the same compound?
The IC50 was 0.105 µM.

And the IC50 (MMP-2)?
The IC50 was 0.0483 µM.
